# Where a name gives a salt, the structure may show the parent alone.
# How the values were obtained:
# [1] = system: HCT116; conditions: 72 h
# Method: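 HCT116 control and MTA1-KO (CRISPR) HCT116 cells were seeded in 384-well plates (800 cells/well), treated 16 h later with 237 metabolism-related anticancer drugs at five doses (10 uM, 2 uM, 400 nM, 80 nM, 16 nM) for 72 h, two replicates; viability by CCK8. Values are % inhibition of viability relative to untreated cells, plus fitted IC50.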
# [2] = system: HCT116; assay: viability inhibition vs untreated; higher = more cytotoxic; conditions: 72 h
Structure (SMILES),IC50 ([1]; genotype: MTA1-KO) [µM],IC50 ([1]; genotype: control) [µM],"viability inhibition ([2]; genotype: MTA1-KO, 16 nM) [%]","viability inhibition ([2]; genotype: MTA1-KO, 80 nM) [%]","viability inhibition ([2]; genotype: MTA1-KO, 400 nM) [%]","viability inhibition ([2]; genotype: MTA1-KO, 2000 nM) [%]","viability inhibition ([2]; genotype: MTA1-KO, 10000 nM) [%]","viability inhibition ([2]; genotype: control, 16 nM) [%]","viability inhibition ([2]; genotype: control, 80 nM) [%]","viability inhibition ([2]; genotype: control, 400 nM) [%]","viability inhibition ([2]; genotype: control, 2000 nM) [%]","viability inhibition ([2]; genotype: control, 10000 nM) [%]"
CC(=NNC(=S)N1CCC1)c1ccccn1,< 0.016,< 0.016,113,110,111,108,107,107,110,95.8,105,111
CC(C)(C#N)c1ccc(N2C(=O)OCc3cnc4ccc(-c5cnc6ccccc6c5)cc4c32)cc1,> 10,> 10,-21.1,-19.6,-26.7,-3.23,30.7,8.09,-11.9,-11.4,-0.304,45.6
CCCC[S+]([O-])c1sc2nc(-c3cccs3)cc(-c3ccccc3)c2c1N (stereo not drawn),> 10,> 10,13.3,12.3,5.6,9.12,41.9,5.17,3.85,2.26,4.74,8.23
CCc1ccc(/C=C2/SC(=S)NC2=O)cc1,> 10,> 10,-4.9,-10,-9.11,-3.79,1.27,7.22,4.14,13,9.23,12.7
CN1CCN(C(=O)/C=C/c2ccc([N+](=O)[O-])o2)CC1,> 10,> 10,-10.2,-18.9,-24,-18.6,19.7,0.552,-3.92,-15.2,-0.064,11
CN1CCN(C(=O)COc2ccc(C34CC5CC(CC(C5)C3)C4)cc2)CC1,9.27,> 10,0.53,0.971,2.4,3.12,55.4,-2.5,-2.81,-1.07,-8.95,7.86
CO[C@@H](C)Cn1c(=O)n(C)c2cnc3ccc(-c4cncc(C(C)(C)O)c4)cc3c21,0.289,0.382,-8.01,27.7,58.8,90.6,102,-0.225,-9.63,58.5,90.9,104
COc1ccc(-c2ccc3c(N4CCOCC4)nc(N4C[C@@H](C)O[C@@H](C)C4)nc3n2)cc1CO,0.753,2.24,14.6,18.1,36.5,68.5,82.3,13.2,20.4,21.5,59.4,72.9
COc1ccc(-c2ccccc2)cc1NS(=O)(=O)c1cc(Cl)cc(Cl)c1O,> 10,> 10,4.57,-1.5,-3.79,-1.98,8.72,-1.23,6.1,4.53,6.77,13.4
Cc1ccc(S(=O)(=O)Cc2nc(-c3ccc(C(=O)NCc4cccnc4)cc3)oc2C)cc1,> 10,> 10,5.08,-6.5,-22.3,-11.9,2.23,9.95,6.71,18.9,19,26.9
Cc1ccc2nc(CN(CCN(Cc3nc4ccc(C)cc4[nH]3)Cc3nc4ccc(C)cc4[nH]3)Cc3nc4ccc(C)cc4[nH]3)[nH]c2c1,6.48,7.39,0.589,-11.3,-3.97,0.541,76.8,6.37,14.6,2.85,20.1,64.1
Cc1nc(-c2nc(-c3ccc(OC(F)(F)F)cc3)no2)nn1Cc1cccc(N2CCC(S(C)(=O)=O)CC2)c1,> 10,> 10,1.35,25,26.2,29.9,45.9,13.9,17.5,21.8,14.5,23.9
N#Cc1c(O)c2c(-c3ccc(-c4ccccc4O)cc3)csc2[nH]c1=O,> 10,> 10,7.25,0.475,5.93,6.59,21.8,-9.79,-10.7,-8.84,-17.7,3.16
NCC(=O)Nc1ccc(-n2nc(C(F)(F)F)cc2-c2ccc3c(ccc4ccccc43)c2)cc1,2.57,1.5,-0.655,3.58,10.6,45.3,77,8.04,10.5,9.27,67,74.1
Nc1nonc1C(=Nc1ccc(F)c(Cl)c1)NO,> 10,> 10,11.1,13.3,16.9,23.6,36.3,10.4,19,-4.25,11,9.01
O=C(O)c1c[nH]c2cc(Cl)c(-c3ccc(C4(O)CCC4)cc3)cc12,3.94,> 10,-7.04,0.458,-9.68,0.998,72.2,-1.55,-12.5,-12.9,-5.3,7.54
O=C(Oc1cc(S(=O)(=O)c2ccccc2)ccc1[N+](=O)[O-])c1ccc(Cl)cc1,> 10,> 10,13.8,11.7,15.7,20,-32.5,-2.81,-4.51,-7.2,-8.31,16.7
O=C1CC(c2c[nH]c3ccc(F)cc23)C(=O)N1 (stereo not drawn),> 10,> 10,7.19,3.94,6.53,3.06,34,15.5,-12.9,-15.6,-1.97,11.6
O=C1NC(=O)/C(=C/c2ccc3nccc(-c4ccncc4)c3c2)S1,1.21,2.02,-12,-22.4,10.1,64.1,99.4,1.82,-12,5.41,56.4,75.1
O=[N+]([O-])c1ccc(Nc2ccccc2-c2ccccc2)c2nonc12,8.18,> 10,2.01,-8.53,-10.8,-6.96,68.6,9.25,24.7,13.3,14.3,23.9

Structure (SMILES),IC50 ([1]; genotype: MTA1-KO) [µM],IC50 ([1]; genotype: control) [µM],"viability inhibition ([2]; genotype: MTA1-KO, 16 nM) [%]","viability inhibition ([2]; genotype: MTA1-KO, 80 nM) [%]","viability inhibition ([2]; genotype: MTA1-KO, 400 nM) [%]","viability inhibition ([2]; genotype: MTA1-KO, 2000 nM) [%]","viability inhibition ([2]; genotype: MTA1-KO, 10000 nM) [%]","viability inhibition ([2]; genotype: control, 16 nM) [%]","viability inhibition ([2]; genotype: control, 80 nM) [%]","viability inhibition ([2]; genotype: control, 400 nM) [%]","viability inhibition ([2]; genotype: control, 2000 nM) [%]","viability inhibition ([2]; genotype: control, 10000 nM) [%]"
CC(C)n1c(/C=C/[C@H](O)C[C@H](O)CC(=O)O)c(-c2ccc(F)cc2)c2ccccc21 (racemic) [Fluvastatin sodium salt],8.96,> 10,12.1,16.7,12.8,19.3,60.4,5.71,10.5,12.1,38,32.9
Nc1ccccc1S(N)(=O)=O [2-Aminobenzenesulfonamide],> 10,> 10,-12,-6.34,-8.18,-6.12,-8.74,-4.67,-10.5,-7.82,-0.883,19.7
COc1cc2c(cc1O)CC[C@@H]1[C@@H]2CC[C@]2(C)[C@@H](O)CC[C@@H]12 [2-Methoxyestradiol],3.34,> 10,12.6,9.89,15.7,38.7,80.2,8.28,14.6,22.6,24.1,33.6
CN(Cc1ccccc1)c1ccc2cc(C(=O)O)c(=O)oc2c1 [7ACC2],> 10,0.373,-27.3,-0.988,20.9,24.6,29,15,-0.73,50.7,64.6,80.8
CC(N)=NCc1cccc(CN)c1 [1400W dihydrochloride],> 10,> 10,5.1,-4.81,-3.44,-9.66,42.6,5.38,-11.1,-13.9,-9.74,2.89
Cc1ccc2c(c1)C(=O)[C@]1(O)CCN(c3ccccc3)C1=N2 [(-)-Blebbistatin],> 10,> 10,2.62,-5.47,-2.06,-3.88,-5.36,-9,-4.56,-13.5,-18.9,-8.68
O=C(O[C@@H]1Cc2c(O)cc(O)cc2O[C@@H]1c1cc(O)c(O)c(O)c1)c1cc(O)c(O)c(O)c1 [(-)-Epigallocatechin Gallate],> 10,> 10,13,-1.62,5.38,12,19.4,-8.68,-5.93,-14.9,-4.61,-3.45
O=C(O)[C@@]1(CCCCCCOc2ccc(Cl)cc2)CO1 [(R)-Etomoxir sodium salt],> 10,> 10,-11.4,-21.5,-17.4,-13.9,37.6,12.3,19.7,14.6,15.3,26.1
C[C@H](Oc1cc(-c2cnn(C3CCNCC3)c2)cnc1N)c1c(Cl)ccc(F)c1Cl [(S)-crizotinib],9.42,> 10,-3.98,-2.9,-13.5,-16.1,66.9,6.82,-13.4,-0.064,-12.1,-7.51
Cc1ccccc1C(C(=O)NC1CCCCC1)N(C(=O)Cn1ccnc1C)c1cccc(F)c1 (stereo not drawn) [AGI5198],> 10,> 10,7.58,7.91,5.76,8.57,37.4,-3.24,-17.7,-10.7,-12.3,2.37
O=C(Nc1cccc(C(F)(F)F)c1)Nc1cc(S(=O)(=O)NC2CC2)ccc1-c1ccsc1 [AGI6780],> 10,> 10,4.84,-6.61,9.84,15.6,49.9,13.6,18.2,3.86,16.8,22.5
NC(=O)c1ncn([C@@H]2O[C@H](CO)[C@@H](O)[C@H]2O)c1N [AICAR (Acadesine)],> 10,> 10,-0.376,0.906,-7.18,-5.56,6.99,-3.52,-3.58,-3.52,-4.22,37.8
CC[C@H](CC#N)OC(=O)N[C@@H](C)c1cccc(NC(=O)Nc2ccc(-c3cnco3)c(OC)c2)c1 [AVN944],0.311,0.131,5.16,4.61,58.7,80.9,93.7,-0.119,29.5,75.2,92.9,96.3
Cc1[nH]nc(C(F)(F)F)c1Cc1sc2c(c1C(=O)N1C[C@](C)(O)CO1)c(=O)n(C)c(=O)n2C(C)C [AZD3965],0.576,0.338,-7.19,25.1,22.9,31.7,47.6,0.727,24.8,21.6,40.3,45.9
COc1ccc(-c2ccc3c(N4CCOC[C@@H]4C)nc(N4CCOC[C@@H]4C)nc3n2)cc1CO [AZD8055],0.843,> 10,-21.9,-16.3,15.5,41.3,67.5,0.243,13.1,36.1,46.1,37.6
COCCNC(=O)Nc1ccc2nc(-c3cccs3)c(-c3cccs3)nc2c1 [Ac-CoA Synthase Inhibitor1],> 10,> 10,-8.17,14.9,15,10.1,6.2,3.53,9.39,-0.277,-10.1,8.5
CC(=O)Nc1nnc(S(N)(=O)=O)s1 [Acetazolamide],> 10,> 10,-8.41,-9.41,-15.4,-8.8,6.99,-4.74,-13.5,-4.54,-3.32,-0.433
Nc1ncnc2c1ncn2[C@@H]1O[C@H](COP(=O)(O)O)[C@@H](O)[C@H]1O [Adenosine 5'-monophosphate monohydrate],> 10,> 10,-22.7,-25.1,-20.2,-18.3,-15.5,14.8,5.2,12.1,10.3,11.9
CCC(C)(C)C(=O)O[C@H]1C[C@@H](C)C=C2C=C[C@H](C)[C@H](CC[C@@H]3C[C@@H](O)CC(=O)O3)[C@H]21 [Simvastatin],> 10,> 10,–,–,–,–,–,–,–,–,–,–

# From the supplement of paper PMC10477900
